According to patent publication US20260200982A1, “HER RECEPTOR DERIVED PEPTIDES AND METHODS OF USE THEREOF” (Ramot at Tel-Aviv University Ltd., priority 2022, published 2026):
Entries after “also recorded” stand apart in the source; their conditions may differ. The star is where a group is joined. Myristoyl = CCCCCCCCCCCCCC(=O)*

Columns and labels:
EGFR (ErbB1) [1] = test: Western blot analysis of dissected Panc-1 tumors, EGFR; type: in vivo, human; settings: Panc-1 tumor lysates
Description: (§1) Pancreatic Tumor Growth in Nude Mice—The study was conducted according to the NIH Guidelines for Use and Care of Laboratory Animals and following the approval by Animal Care Committee of the Tel Aviv University. Nude CD1-Nu mice (25-30 g) housed in barrier facilities on a 12-h light/dark cycle one week prior to the injection of tumor cells (day zero). On day zero, 2×10^6 Panc 1 cells in 0.1 ml of PBS were implanted subcutaneously just above the right femoral joint. Tumor size was measured every 3-4 days. When the tumors were apparently seen and the calculated tumor size was 40 mm^3, the animals were divided randomly into two groups of mice (control vehicle treated and myr-NLS (SEQ ID NO: 5) treated; 8 mice per group). Treatment with the myr-NLS (SEQ ID NO: 5) was performed by intraperitoneal injection of 25 μg in 100 μl PBS (or 100 μl PBS for control mice) every day. Tumors size was measured 3 times a week. At the end of the experiment, the mice were sacrificed, and the tumors were dissected and used for further analysis.
Western blot analysis—Half of each tumor was homogenized in lysis buffer, using a Potter-Elvehjem manual homogenizer, cleared and kept at −70° C. The lysates (30 μg) were resolved by SDS-polyacrylamide gel electrophoresis (SDS-PAGE) and transferred to nitrocellulose membranes. The membranes were blocked with TBST buffer containing 6% milk and reacted with the indicated primary antibodies followed by second antibodies. Immunoreactive bands were detected with the enhanced chemiluminescence reagent (Luminata Crescendo Western HRP). Densitometric quantification analysis of the resulted images was done using ImageJ program.
Following, the present inventors examined whether the reduction of the tumor growth rate correlates with alterations expression and activation of the relevant proteins. To this end, lysates were prepared form the dissected tumors for protein levels evaluations. The tumor lysates were processed for western blot analysis (30 μg protein, 10% SDS polyacrylamide gel electrophoresis) and protein levels were determined using the indicated antibodies.

EGFR (ErbB1) [2] = test: Immunoblotting of cell lysates, EGFR phosphorylation; type: cell-based, human; settings: DLD-1 or Panc-1 cells; 24 hours; 25 μM and 10 μM; FIGS. 13A-B
Description: Lysate preparation and immunoblotting—Cells were seeded at cell densities of 1.5×10^5 (DLD-1), 1.8×10^5 (HCT-116) and 2.5×10^5 (SKBR3) cells/well, treated as indicated and grown for 24 hours. Following, cells were lysed in solubilization buffer; the lysates were cleared by centrifugation and a boiling gel sample buffer was added. Proteins were resolved by SDS-polyacrylamide gel electrophoresis through 10% polyacrylamide gels, and were electrophoretically transferred to nitrocellulose membranes. Membranes were blocked in TBST buffer containing 6% milk, and blotted with primary antibodies. Following, a secondary antibody linked to horseradish peroxidase was added. Immunoreactive bands were detected with the enhanced chemiluminescence reagent Immobilon Crescendo Western HRP substrate (WBLUR0100; Merck Millipore).

MIA PaCa-2 cells = test: Colony formation assay, MIA PaCa-2; type: cell-based, human; settings: 4.5 μM, 72 hours, FIG. 8
Description: Colony formation assay—Cells were plated onto 12-well plate (6×10^4 cells/well) and treated with either PBS or myr-NLS at the IC50 concentration for 3 days. Cells were collected and replated in 10-cm plates (at 3 dilutions of 1:10, 1:20 and 1:40). After 7-14 days when visible and yet separated colonies were formed, the cells were fixed with 0.1% acetic acid in PBS, and stained with 0.4% crystal violet in 0.1% acetic acid. Total colonies area was calculated using the ImageJ program.
In order to test the effect of myr-NLS on cell tumorigenicity, a colony formation assay was performed. To this end, Panc-1 and MIA PaCa-2 cells were treated or untreated for 72 hours with IC50 dose of myr-NLS (SEQ ID NO: 5, 8 μM and 4.5 μM respectively). Cells were then seeded at the same dilutions in new plates until colonies were formed.

[3] = tested on: H-Ras-transformed Rat-1 cells (EJ cells); type: cell-based; settings: FIG. 4C
Source text: Cell lines—Human breast cancer cell lines SKBR3 [Peles E et al. EMBO J. (1993) 12(3):961-71] and MCF7 [Faigenbloom L et al., Mol Syst Biol. (2015) 11(12):845] and human glioblastoma U87 [Goldberg L et al. Cancer Res. (2006) 66(24):11709-17] cell line, as well as Rat-1 fibroblast cells and H-Ras-transformed Rat-1 cells (EJ cells) [Marom M et al. J Biol Chem. (1995) 270(38):22263-70] and human Panc-1 and MIA PaCa-2 pancreatic cell lines (Rak R et al. Oncoscience. 2014 1(1):39-48; Weisz B et al. Oncogene (1999) 18, 2579±2588) were all grown in Dulbecco's modified Eagle's medium (DMEM; Biological Industries, Beithaemek, Israel). Human colorectal cancer cell lines DLD-1 (ATTC Cat No. CCL-221), HCT-116 (ATTC Cat No. CCL-247) and LNCaP prostate cancer cells were grown in Roswell Park Memorial Institute 1640 (RPMI 1640) medium and McCoy's 5A media, respectively (Sigma-Aldrich). All media were supplemented with antibiotics and 10% heat-inactivated fetal bovine serum (FBS; Gibco). Human breast cell line MCF10A [Bott A et al. Oncotarget. […]
Methylene blue viability assay—Cells were plated in 96-wells plates at cell densities of 1.5×10^3 (EJ, DLD-1), 3×10^3 (Rat-1, HCT-116, U87), 5×10^3 (SKBR3, MCF7) and 6×10^3 (MCF10A) cells/well. […] IC-50 values were calculated using a non-linear regression model (logarithmic inhibitor vs. normalized response-variable slope) with the GraphPad Prism 6 software.

ErbB2 = test: Western blot analysis of dissected Panc-1 tumors, ErbB2; type: in vivo, human; settings: Panc-1 tumor lysates; FIGS. 10A-C
Description: as §1
Western blot analysis—Half of each tumor was homogenized in lysis buffer, using a Potter-Elvehjem manual homogenizer, cleared and kept at −70° C. […] Immunoreactive bands were detected with the enhanced chemiluminescence reagent (Luminata Crescendo Western HRP). Densitometric quantification analysis of the resulted images was done using ImageJ program. […]

[4] = tested on: Panc-1 (pancreatic cancer) tumor xenografts; test: Pancreatic Tumor Growth in Nude Mice; type: in vivo; settings: Panc-1 xenografts, 25 μg intraperitoneal daily, FIGS. 9A-C
Description: as §1

Substance: Myr-RRRHIVRKRTLRRLL-OH (Myristoyl-RRRHIVRKRTLRRLL-OH; SMILES CCCCCCCCCCCCCC(=O)N[C@@H](CCCNC(=N)N)C(=O)N[C@@H](CCCNC(=N)N)C(=O)N[C@@H](CCCNC(=N)N)C(=O)N[C@@H](Cc1c[nH]cn1)C(=O)N[C@H](C(=O)N[C@H](C(=O)N[C@@H](CCCNC(=N)N)C(=O)N[C@@H](CCCCN)C(=O)N[C@@H](CCCNC(=N)N)C(=O)N[C@H](C(=O)N[C@@H](CC(C)C)C(=O)N[C@@H](CCCNC(=N)N)C(=O)N[C@@H](CCCNC(=N)N)C(=O)N[C@@H](CC(C)C)C(=O)N[C@@H](CC(C)C)C(=O)O)[C@@H](C)O)C(C)C)[C@@H](C)CC) [myr-NLS]
- ratio between EGFR and its phosphorylation state (activation of the EGFR) (EGFR (ErbB1) [1]; FIG. 10C): affected the activation of the EGFR
- expression levels of EGFR in tumors (EGFR (ErbB1) [1]; FIGS. 10A-C): reduced
- levels of phosphorylated EGFR in tumors (EGFR (ErbB1) [1]; FIGS. 10A-C): reduced
- levels of phosphorylated EGFR (EGFR (ErbB1) [2]): reduced
- colony formation (total colonies area) (MIA PaCa-2 cells): fewer and smaller colonies
- viability of Rat-1 fibroblast cells transformed with constitutive Ras (EJ) [3]: decreased viability
- levels of total ErbB2 in tumors (ErbB2): reduced
- phosphorylated ErbB2 expression in tumors (ErbB2): reduced
- tumor growth (tumor size, tumor weight) [4]: significantly reduced tumor cell growth; also recorded: inhibits pancreatic tumor growth
